For one data set, the system named is HepaRG. Nature of the data set: Neutral red uptake assay, HepaRG. It is filed as cell-based. The following applies: Homo sapiens, 72 h exposure. How it is done:
(§1) L-929 (mouse C3H/An connective tissue), Caco-2 (human colon adenocarcinoma), A172 (human glioblastoma), AGS (human gastric adenocarcinoma), HepaRG (human hepatoma cell), and HeLa (human cervix epithelioid carcinoma) cell lines were obtained from the European Collection of Authenticated Cell Cultures (ECACC) and provided by Sigma Aldrich/Merck (Munich, Germany). All cell lines were cultured in complete mediums prepared according to the ECACC recommendations and incubated in a humidified atmosphere with 5% CO2 at 37 °C. Neutral red uptake assay was performed according to the protocol. 24 h before treatment cells were seeded in 96-well plates in 1 × 10^5 cell/mL of complete medium. After incubation and attachment of cells, the medium was discarded, and test substances dissolved in the fresh medium were added to wells. Samples were tested after 24, 48, and 72 h incubation. A neutral red working solution (40 µg/mL) was prepared and incubated overnight. […] Absorption was measured using a Thermo Scientific™ (Waltham, MA, USA) Multiskan™ GO microplate spectrophotometer at 540 nm. […] Viability was calculated according to the following formula:(1) % Viability=ODtest substance−ODblind/ODnegative control−ODblind×100 Neutral red uptake assay was performed in quadruple (n = 4). Results were calculated to mean ± standard deviation (SD) using Microsoft Office Excel 2007. […]

A further data set has as its system L-929 cell line. Nature of the data set: Neutral red uptake assay, L-929 cell line (primary screening). It is filed as cell-based, mouse. The following applies: normal cell line L-929. How it is done:
L-929 (mouse C3H/An connective tissue), Caco-2 (human colon adenocarcinoma), A172 (human glioblastoma), AGS (human gastric adenocarcinoma), HepaRG (human hepatoma cell), and HeLa (human cervix epithelioid carcinoma) cell lines were obtained from the European Collection of Authenticated Cell Cultures (ECACC) and provided by Sigma Aldrich/Merck (Munich, Germany). All cell lines were cultured in complete mediums prepared according to the ECACC recommendations and incubated in a humidified atmosphere with 5% CO2 at 37 °C. Neutral red uptake assay was performed according to the protocol. 24 h before treatment cells were seeded in 96-well plates in 1 × 10^5 cell/mL of complete medium. After incubation and attachment of cells, the medium was discarded, and test substances dissolved in the fresh medium were added to wells. Samples were tested after 24, 48, and 72 h incubation. A neutral red working solution (40 µg/mL) was prepared and incubated overnight. Immediately before use, it was centrifuged to remove any dye crystals. The medium from wells was aspirated, and 100 µL of neutral red was added to plates and incubated for at least 2 h in 37 °C and 5% CO2 in a humidified atmosphere. To inspect the absorption of neutral red to the lysosomes, microscope visualizations were performed. After incubation, cells were washed with PBS, and destain solution containing ethanol, deionized water, and glacial acetic acid (50:49:1) was added. Plates were shaken rapidly on a horizontal shaker at 37 °C. Absorption was measured using a Thermo Scientific™ (Waltham, MA, USA) Multiskan™ GO microplate spectrophotometer at 540 nm. The negative control was a medium with 1% DMSO, and the positive control was 1 µM staurosporine. Viability was calculated according to the following formula:(1) % Viability=ODtest substance−ODblind/ODnegative control−ODblind×100 Neutral red uptake assay was performed in quadruple (n = 4). Results were calculated to mean ± standard deviation (SD) using Microsoft Office Excel 2007. The viability in negative control was compared to 100%. Statistical analyses were performed using the GraphPad Prism 8.3 for Windows (GraphPad Software, La Jolla, CA, USA, www.graphpad.com). For IC50 results, non-linear regression analyses were performed, and a sigmoidal dose-response curve (variable slope) was fitted. Differences between groups and control were tested using an ANOVA test followed by Dunnett’s post hoc analysis. The significance was set at p ≤ 0.05.

The subject of data set [1] is Enterococcus faecalis ATCC 29212. Description: Antimicrobial microdilution / modified Richards method. It is filed as cell-based. In general terms: Dilution methods test growth across graded concentrations, often in twofold steps.
In data set [2] the test system is other cell lines (Caco-2, A172, HeLa, AGS). Nature of the data set: Neutral red uptake assay, other neoplastic cell lines. It is filed as cell-based, human. The conditions noted are these: cell lines other than HepaRG; viability decreased at 100–1000 µM; 72 h exposure. How it is done:
as §1

In data set [3] the test system is Candida albicans ATCC 10231. Nature of the data set: Antimicrobial microdilution / modified Richards method. The following applies: ATCC10231; Candida albicans 10231; according to the EUCAST examination; read-out: MIC (reference agent). It is filed as cell-based.
Data set [4] concerns Escherichia coli ATCC 25922. The description is as above. It is filed as cell-based. The following applies: ATCC25922; Escherichia coli 25922; according to the EUCAST examination; read-out: MIC (reference agent).
In data set [5] the test system is Streptococcus pneumoniae ATCC 49619. Described as above. It is filed as cell-based. The following applies: ATCC49619; Streptococcus pneumoniae 49619; according to the EUCAST examination; read-out: MIC (reference agent).
Data set [6] deals with Staphylococcus aureus ATCC 43300. Described as above. It is filed as cell-based. The following applies: ATCC43300; Staphylococcus aureus 43300; according to the EUCAST examination; read-out: MIC (reference agent).
The test system of data set [7] is Pseudomonas aeruginosa ATCC 27853. The data set is described as above. It is filed as cell-based. The following applies: ATCC27853; Pseudomonas aeruginosa 27853; according to the EUCAST examination; read-out: MIC (reference agent).
Data set [8] has as its system Klebsiella pneumoniae ATCC 13883. The data set is described as above. It is filed as cell-based. The following applies: ATCC13883; Klebsiella pneumoniae 13883; according to the EUCAST examination; read-out: MIC (reference agent).
A further data set deals with AGS cell line. Description: Microscopic observation of cell and nucleus morphology, Hoechst 33342. It is filed as cell-based, human. The conditions noted are these: positive control, 1 µM. Here is the method:
Morphological changes and DNA fragmentation were examined with an Olympus IX53 inverted fluorescence microscope after staining with Hoechst 33342 according to the manufacturer’s recommendations Thermo Scientific (Waltham, MA, USA). Briefly, cells were seeded in 12-well plates with a density of 1 × 10^5 cell/mL. After overnight incubation, the test substance was added in a half-maximal inhibitory (IC50) concentration and incubated for 24, 48, and 72 h. Before microscopic observation, both adherent and floating cells were collected, centrifuged, resuspended in PBS containing 1 µg/mL Hoechst 33342 dye. After 10 min incubation in the dark, the morphology of cells and DNA were visualized using a contrast phase and a UV filter.

The mark [9] stands for this setting: Enterococcus faecalis ATCC 29212, range tested 1024 to 1 ug/mL.

In brackets after ≈: the same amount, converted by molar mass. Like-named read-outs stand apart in the source and are kept apart here.

Consider `CCOc1ccc(NCc2c(C)nc(-c3ccccc3)nc2Nc2ccc(F)cc2)cc1` [Compound 2, 5-[(4-ethoxyanilino)methyl]-N-(4-fluorophenyl)-6-methyl-2-phenylpyrimidin-4-amine], for which the melting point lay in the range of 163 to 164 °C. Moreover, the concentration for half-maximal inhibition (IC50) in the data set with HepaRG is 404 µM. Further, the “effect on L-929 survival” value in the data set with L-929 cell line is given as “did not significantly affect L-929 survival”. Also, in data set [1] (setting [9]), the minimal bactericidal concentration (MBC) was 1024 µg/mL (≈ 2390 µM) and the minimal inhibitory concentration (MIC) is 512 µg/mL (≈ 1190 µM). Further, the minimum bactericidal concentration (MBC) in data set [1] (Enterococcus faecalis, ATCC29212, Enterococcus faecalis ATCC 29212, range tested 1024 to 1 ug/mL, read-out: MBC) is 512 µg/mL (≈ 1190 µM). In addition, the MIC in [1] (Enterococcus faecalis, ATCC29212, Enterococcus faecalis ATCC 29212, range tested 1024 to 1 ug/mL, read-out: MIC) came out at 1020 µg/mL (≈ 2390 µM). In addition, the IC50 result in data set [2] was “IC50 was not reached”.
`Cc1nc(-c2ccccc2)nc(Nc2ccc(F)cc2)c1C=O` [Compound 4, 4-(4-fluoroanilino)-6-methyl-2-phenylpyrimidine-5-carbaldehyde]: the melting point came out at 184 °C.
With `C[C@@H]1[C@H](O)[C@@H](C)/C=C/C=C/C=C/C=C/C=C/C=C/C=C/[C@H](O[C@@H]2O[C@H](C)[C@@H](O)[C@H](N)[C@@H]2O)C[C@@H]2O[C@](O)(C[C@@H](O)C[C@@H](O)[C@H](O)CC[C@@H](O)C[C@@H](O)CC(=O)O[C@H]1C)C[C@H](O)[C@H]2C(=O)O` [amphotericin B], the minimum inhibitory concentration (MIC) in data set [3] was 1 µg/mL (≈ 1.08 µM).
As to `CNC(C)C1CCC(N)C(OC2C(N)CC(N)C(OC3OCC(C)(O)C(NC)C3O)C2O)O1` (centres unmarked) [gentamicin], the minimum inhibitory concentration (MIC) in [4] came to 2 µg/mL (≈ 4.19 µM).
As to `C[C@H]1COc2c(N3CCN(C)CC3)c(F)cc3c(=O)c(C(=O)O)cn1c23` [levofloxacin], the minimal inhibitory concentration (MIC) was 0.001 µg/mL (≈ 0.00277 µM) in [5]; 1 µg/mL (≈ 2.77 µM) in data set [6]; 4 µg/mL (≈ 11.1 µM) in data set [1] (Enterococcus faecalis, ATCC29212, Enterococcus faecalis 29212, according to the EUCAST examination, read-out: MIC (reference agent)); 1 µg/mL (≈ 2.77 µM) in [7]; 0.5 µg/mL (≈ 1.38 µM) in data set [8].
With `CN[C@@H]1C[C@H]2O[C@@](C)([C@@H]1OC)n1c3ccccc3c3c4c(c5c6ccccc6n2c5c31)C(=O)NC4` [staurosporine, reference compound], the “cell and nucleus morphology” value with AGS cell line is “Shrunken cells’ bodies and fragmented DNA”.

The IC50 is the concentration needed to halve the response being measured. Low values mean higher potency, high ones lower potency. A word on the MBC: it is the smallest concentration meeting the test's criterion for killing. For orientation: MIC means the lowest concentration found to suppress growth. Broadly, the melting point is the temperature, or range, at which the solid turns liquid.

(Values after publication PMC8071423, “A New Pyrimidine Schiff Base with Selective Activities against Enterococcus faecalis and Gastric Adenocarcinoma” (Molecules, 2021).)
